Results published in patent US20220340597A1, “HEXAHYDRO-1H-PYRAZINO[1,2-A]PYRAZINE COMPOUNDS FOR THE TREATMENT OF AUTOIMMUNE DISEASE” (Hoffmann-La Roche Inc., priority 2019, published 2022).

What was measured:
human TLR8 = biological target: T1, human TLR8 (Homo sapiens, UniProt Q9NR97); assay: HEK293-Blue-hTLR-8 cells assay
T1 sequence (Q9NR97 27-1041): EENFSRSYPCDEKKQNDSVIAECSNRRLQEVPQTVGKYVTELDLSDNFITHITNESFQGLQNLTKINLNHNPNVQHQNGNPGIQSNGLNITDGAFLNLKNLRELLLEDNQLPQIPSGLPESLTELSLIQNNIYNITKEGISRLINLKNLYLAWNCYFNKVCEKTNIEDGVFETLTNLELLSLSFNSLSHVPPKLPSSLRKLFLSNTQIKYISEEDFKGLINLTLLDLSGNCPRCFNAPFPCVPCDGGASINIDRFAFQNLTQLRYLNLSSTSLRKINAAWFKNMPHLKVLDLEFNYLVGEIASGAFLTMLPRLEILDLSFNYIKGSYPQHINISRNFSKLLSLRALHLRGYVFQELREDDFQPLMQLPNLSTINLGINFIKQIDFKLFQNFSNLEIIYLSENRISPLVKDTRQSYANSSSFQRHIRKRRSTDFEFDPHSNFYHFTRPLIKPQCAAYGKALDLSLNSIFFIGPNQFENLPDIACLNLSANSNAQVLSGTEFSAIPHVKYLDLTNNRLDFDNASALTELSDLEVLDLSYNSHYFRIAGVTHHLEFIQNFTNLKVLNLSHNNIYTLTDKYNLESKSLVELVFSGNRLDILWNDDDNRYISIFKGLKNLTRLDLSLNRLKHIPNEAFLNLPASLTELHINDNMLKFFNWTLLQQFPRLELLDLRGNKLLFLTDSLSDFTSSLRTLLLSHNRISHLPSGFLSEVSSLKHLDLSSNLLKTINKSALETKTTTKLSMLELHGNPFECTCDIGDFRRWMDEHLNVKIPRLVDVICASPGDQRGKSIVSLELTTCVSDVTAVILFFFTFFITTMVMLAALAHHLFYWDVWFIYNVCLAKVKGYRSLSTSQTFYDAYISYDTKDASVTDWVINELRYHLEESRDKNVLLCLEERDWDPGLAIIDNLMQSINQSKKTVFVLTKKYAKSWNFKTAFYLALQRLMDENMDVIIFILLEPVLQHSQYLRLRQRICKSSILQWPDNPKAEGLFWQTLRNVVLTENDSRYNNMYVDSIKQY

human TLR7 = biological target: T2, human TLR7 (Homo sapiens, UniProt Q9NYK1); assay: HEK293-Blue-hTLR-7 cells assay; type: cell-based; conditions: HEK293-Blue-hTLR7 cells, R848 stimulation, 20 hrs, SEAP reporter; read-out: HEK/hTLR7 IC50
T2 construct: host or cells: HEK293 (HEK-Blue hTLR7)
T2 sequence (Q9NYK1 27-1049): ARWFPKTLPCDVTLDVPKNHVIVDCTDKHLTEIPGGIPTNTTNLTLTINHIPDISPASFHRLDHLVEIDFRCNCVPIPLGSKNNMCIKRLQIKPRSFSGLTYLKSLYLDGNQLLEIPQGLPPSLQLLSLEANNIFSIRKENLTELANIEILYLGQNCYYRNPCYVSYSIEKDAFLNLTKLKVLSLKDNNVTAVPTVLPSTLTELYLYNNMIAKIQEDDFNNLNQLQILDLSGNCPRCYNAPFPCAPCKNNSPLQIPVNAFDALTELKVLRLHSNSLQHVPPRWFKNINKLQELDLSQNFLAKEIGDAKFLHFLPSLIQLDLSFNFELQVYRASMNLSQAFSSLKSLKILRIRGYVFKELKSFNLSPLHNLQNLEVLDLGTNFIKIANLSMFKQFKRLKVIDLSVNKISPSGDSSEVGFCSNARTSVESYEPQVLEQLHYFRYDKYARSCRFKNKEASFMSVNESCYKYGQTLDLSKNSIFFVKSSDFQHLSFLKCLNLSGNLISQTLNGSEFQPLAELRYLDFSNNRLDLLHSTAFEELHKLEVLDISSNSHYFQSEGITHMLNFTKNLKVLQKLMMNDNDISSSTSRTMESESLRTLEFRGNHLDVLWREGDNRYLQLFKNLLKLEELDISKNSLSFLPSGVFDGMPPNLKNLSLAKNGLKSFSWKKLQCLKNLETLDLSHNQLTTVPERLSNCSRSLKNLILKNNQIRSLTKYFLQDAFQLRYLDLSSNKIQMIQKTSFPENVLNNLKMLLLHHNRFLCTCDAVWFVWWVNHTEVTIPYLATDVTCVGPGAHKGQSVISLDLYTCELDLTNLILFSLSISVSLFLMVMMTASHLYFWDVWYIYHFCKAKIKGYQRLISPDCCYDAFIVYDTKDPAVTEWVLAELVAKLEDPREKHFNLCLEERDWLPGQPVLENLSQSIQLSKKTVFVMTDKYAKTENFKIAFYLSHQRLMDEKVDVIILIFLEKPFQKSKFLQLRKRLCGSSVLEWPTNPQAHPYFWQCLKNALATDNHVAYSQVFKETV

SMILES | IC50 (human TLR8) [µM] | IC50 (human TLR7) [µM]
C[C@@H]1CN(c2ccc(C#N)c3ncccc23)C[C@@H]2CN(CCc3ccc(N4CC5(CNCCO5)C4)cc3)CCN21 [Example 28, 5-[(4R,9aS)-4-methyl-8-[2-[4-(5-oxa-2,8-diazaspiro[3.5]nonan-2-yl)phenyl]ethyl]-3,4,6,7,9,9a-hexahydro-1H-pyrazino[1,2-a]pyrazin-2-yl]quinoline-8-carbonitrile] | 0.029 | 0.012
C[C@@H]1CN(c2ccc(C#N)c3ncccc23)C[C@@H]2CN(Cc3ccc4c(c3)CCNC4)CCN21 [Example 10, 5-[(4R,9aS)-4-methyl-8-(1,2,3,4-tetrahydroisoquinolin-6-ylmethyl)-3,4,6,7,9,9a-hexahydro-1H-pyrazino[1,2-a]pyrazin-2-yl]quinoline-8-carbonitrile] | 0.012 | 0.026
[2H]c1ccc2c(N3C[C@@H]4CN(CCc5ccc(N6C[C@H]7NCCO[C@@H]7C6)nc5)CCN4[C@H](C)C3)ccc(C#N)c2n1 [Example 77, 5-[(4R,9aS)-8-[2-[6-[(4aR,7aR)-3,4,4a,5,7,7a-hexahydro-2H-pyrrolo[3,4-b][1,4]oxazin-6-yl]-3-pyridyl]ethyl]-4-methyl-3,4,6,7,9,9a-hexahydro-1H-pyrazino[1,2-a]pyrazin-2-yl]-2-deuterio-quinoline-8-carbonitrile] | 0.024 | 0.021

The next compounds have a lower IC50 (human TLR8) than those just listed; values first:

IC50 (human TLR8) [µM] | IC50 (human TLR7) [µM] | SMILES
0.005 | 0.016 | Cc1nc(N2CC(C)(N)C2)ccc1CN1CCN2[C@@H](C1)CN(c1ccc(C#N)c3ncccc13)C[C@H]2C [Example 76, 5-[(4R,9aS)-8-[[6-(3-amino-3-methyl-azetidin-1-yl)-2-methyl-3-pyridyl]methyl]-4-methyl-3,4,6,7,9,9a-hexahydro-1H-pyrazino[1,2-a]pyrazin-2-yl]quinoline-8-carbonitrile]
0.003 | 0.009 | [2H]c1ccc2c(N3C[C@@H]4CN(c5ccc(CCN6C[C@H](OC)[C@@H](N)C6)cn5)CCN4[C@@H](C)C3)ccc(C#N)c2n1 [Example 122, 5-[(4S,9aR)-8-[5-[2-[(3S,4S)-3-amino-4-methoxy-pyrrolidin-1-yl]ethyl]-2-pyridyl]-4-methyl-3,4,6,7,9,9a-hexahydro-1H-pyrazino[1,2-a]pyrazin-2-yl]-2-deuterio-quinoline-8-carbonitrile]
